Results from US10005733B2, “N-(4-hydroxy-4-methyl-cyclohexyl)-4-phenyl-benzenesulfonamide and N-(4-hydroxy-4-methyl-cyclohexyl)-4-(2-pyridyl)-benzenesulfonamide compounds and their therapeutic use” (PIMCO 2664 LIMITED, priority 2014, dated 2018).

Experiments:
CYP2C19 = molecular target: T1, CYP2C19 (Homo sapiens, UniProt P33261); assay: Human Cytochrome P450 Inhibition Assay (Bactosomes), CYP2C19; assay type: in vitro ADME; settings: recombinant Bactosomes, probe substrate, 10 minutes at 37° C.
T1 construct: purchased Cypex Ltd, Dundee, Scotland UK
Experimental: (§1) The ability of test compounds to inhibit five of the most relevant cytochrome P450 enzymes was measured by determination of the activity of cytochrome P450 enzymes in recombinant cytochrome preparations, called Bactosomes (Cypex Ltd, Dundee, Scotland UK DD2 1NH), in the presence of a specific probe substrate. Bactosomes are a highly efficient and cost-effective source of recombinant CYP450s which have a higher specific activity of enzyme compared to other sources, such as liver microsomes. […] The following CYP450 isoforms were assayed: CYP1A2, CYP2C9, CYP2C19, CYP2D6 and CYP3A4. The study of CYP450 inhibition potential in Bactosomes is accepted as a valuable model permitting rapid prediction of potential drug-drug interactions in vivo (see, e.g., Weaver et al., 2003).
(§2) Bactosomes were obtained from a commercial source (Cypex, Scotland, UK). Test compounds were incubated with Bactosomes at 6 concentrations. Samples were incubated for 10 minutes, after which the reaction was stopped and the samples analysed by LC-MS/MS Multiple Reaction Monitoring (MRM) for the presence/amount of substrate probe.
(§3) CYP450 enzymes (final protein 75 pmol/mL for CYP1A2; 12.5 pmol/mL for CYP2C19; and 25 pmol/mL for CYP2C9, 2D6 and 3A4), 0.1 M phosphate buffer pH 7.4, probe and test compound (final concentration 50, 15.8, 5, 1.58, 0.5 and 0.158 μM; diluted from 10 mM stock solution to give a final DMSO concentration of 1%) were pre-incubated at 37° C. for 5 minutes. The reaction was initiated by the addition of 20 μL of 10 mM NADPH in phosphate buffer. The final incubation volume was 200 μL. The following control inhibitors were used for each CYP450 inhibition assay: CYP1A2: α-naphthoflavone; CYP2C9: sulfaphenazole; CYP2C19: tranylcypromine; CYP2D6: quinidine; CYP3A4: ketoconazole.
(§4) Each compound was incubated for 10 minutes at 37° C. The reactions were stopped by the addition of methanol (final composition 1:1, aqueous: methanol). The incubation plates were shaken, chilled at […] for 2 hours, and centrifuged at 3500 rpm for 15 minutes at 4° C. to precipitate the protein.
(§5) IC50 values were determined by linear transformation within Microsoft Excel.

J774 macrophages = assay: Resazurin Macrophage J774 Viability Assay; assay type: cell-based; settings: Mus musculus
Experimental: Potency was assessed using a viability assay based on the survival of the J774 macrophage cell line. Macrophages are closely related to osteoclasts and have been used previously as a model system for osteoclast survival (see, e.g., Luckman et al., 1998, “Heterocycle-containing bisphosphonates cause apoptosis and inhibit bone resorption by preventing protein prenylation: evidence from structure-activity relationships in J774 macrophages,” J. Bone Miner. Res., Vol. 13, pp. 1668-1678). The model is indicative both of effects on bone protection in diseases such as osteoporosis, osteoarthritis and rheumatoid arthritis, and of effects on inflammation since, like osteoclasts, J774 macrophages are dependent for survival on continued NFκB activation.
In vitro potency of test compounds was determined by incubation with J774 macrophages and subsequent determination of cell viability using resazurin.
Resazurin is a redox dye commonly used as an indicator of viability in cultured cells (see, e.g., Anoopkumar-Dukie, 2005, “Resazurin assay of radiation response in cultured cells”, British Journal of Radiology, Vol. 78, pp. 945-947). It is non-toxic to cells and stable in culture medium, allowing continuous measurement of cell proliferation in vitro as either a kinetic or endpoint assay. The assay is based on the ability of viable, metabolically-active cells to reduce resazurin (which is blue and non-fluorescent) to resorufin and dihydroresorufin (which are red and fluorescent) using electrons from reducing species, such as nicotinamide […] and flavin adenine dinucleotide (FADH). This transformation, from oxidised form to reduced form, can be measured either colorimetrically or fluorometrically. Insults that impair cell viability and proliferation also affects the capacity of cells to reduce resazurin, and the rate of dye reduction is directly proportional to the number of viable cells present.
For fluorescence measurements, 530-560 nm excitation and 590 nm emission wavelengths are typically used. For colorimetric measurements, absorbance at 570 nm (reduced form) and 600 nm (oxidised form) is typically measured. A simple calculation is performed to determine the relative quantities of the two species: a high ratio of resorufin (the reduced form) to resazurin (the oxidised form) is an indicator that cells are proliferating and viable. A low ratio indicates cells that are quiescent or non-viable.
J774 cells were plated at 10^4 cells per well in 100 μL αMEM (α Modified Eagle Medium) in 96-well plates and allowed to adhere overnight. The following day, test compounds were prepared as 100 mM solutions in DMSO. These stock solutions were diluted in DMSO and then diluted 1000× in culture medium (αMEM) before being added directly to the wells so as to give the desired final compound concentration. After a 72 hour incubation at 37° C./5% CO2, resazurin (Alamar Blue, Biosource International) was added to each well (1:10 v/v, 10 μL). The plate was then incubated at 37° C. for 3 hours and fluorescence was measured at 590 nm, with a 25 nm bandwidth.
The average results for each test compound were expressed as a percent (%) of the average control value reflecting cell viability. The average values across the concentrations tested were then plotted and an IC50 was calculated by fitting the data to a 4-parameter IC50 equation using either Graph Pad Prism software for Windows (Graph Pad Software, San Diego Calif. USA) or Grafit version 5 (Erithacus Software). Each experiment was repeated twice and the data are presented as the mean IC50 from both experiments.

CYP2C9 = molecular target: T2, CYP2C9 (Homo sapiens, UniProt P11712); assay: Human Cytochrome P450 Inhibition Assay (Bactosomes), CYP2C9; assay type: in vitro ADME; settings: recombinant Bactosomes, probe substrate, 10 minutes at 37° C.
T2 construct: purchased Cypex Ltd, Dundee, Scotland UK
Experimental: as §1, §2, §3, §4, §5

CYP2D6 = molecular target: T3, CYP2D6 (Homo sapiens, UniProt P10635); assay: Human Cytochrome P450 Inhibition Assay (Bactosomes), CYP2D6; assay type: in vitro ADME; settings: recombinant Bactosomes, probe substrate, 10 minutes at 37° C.
T3 construct: purchased Cypex Ltd, Dundee, Scotland UK
Experimental: as §1, §2, §3, §4, §5

CYP3A4 = molecular target: T4, CYP3A4 (Homo sapiens, UniProt P08684); assay: Human Cytochrome P450 Inhibition Assay (Bactosomes), CYP3A4; assay type: in vitro ADME; settings: recombinant Bactosomes, probe substrate, 10 minutes at 37° C.
T4 construct: purchased Cypex Ltd, Dundee, Scotland UK
Experimental: as §1, §2, §3, §4, §5

[1] = J774, footnote (2): 12 point range 10 μM to 0.5 nM, n = 4 per concentration, GraphPad Prism, average of original and new experiments where replicates increased
[2] = J774, 72 h, footnote (1): 10 point range 30 μM to 1.5 nM, n = 3 per concentration, Grafit, 72 hour incubation

T2 sequence (P11712 whole entry): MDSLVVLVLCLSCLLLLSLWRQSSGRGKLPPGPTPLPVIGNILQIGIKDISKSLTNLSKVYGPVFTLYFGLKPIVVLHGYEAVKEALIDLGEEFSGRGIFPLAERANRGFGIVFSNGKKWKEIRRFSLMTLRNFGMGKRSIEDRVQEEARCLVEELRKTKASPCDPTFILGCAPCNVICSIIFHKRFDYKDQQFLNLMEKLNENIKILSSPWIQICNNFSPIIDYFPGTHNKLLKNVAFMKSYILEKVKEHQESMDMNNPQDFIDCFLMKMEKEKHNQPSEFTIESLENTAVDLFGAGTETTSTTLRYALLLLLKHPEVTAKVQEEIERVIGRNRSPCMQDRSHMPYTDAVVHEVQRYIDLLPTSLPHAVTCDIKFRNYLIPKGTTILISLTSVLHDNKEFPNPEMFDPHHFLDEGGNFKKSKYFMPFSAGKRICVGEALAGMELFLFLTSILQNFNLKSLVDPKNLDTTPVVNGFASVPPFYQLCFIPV
T1 sequence (P33261 whole entry): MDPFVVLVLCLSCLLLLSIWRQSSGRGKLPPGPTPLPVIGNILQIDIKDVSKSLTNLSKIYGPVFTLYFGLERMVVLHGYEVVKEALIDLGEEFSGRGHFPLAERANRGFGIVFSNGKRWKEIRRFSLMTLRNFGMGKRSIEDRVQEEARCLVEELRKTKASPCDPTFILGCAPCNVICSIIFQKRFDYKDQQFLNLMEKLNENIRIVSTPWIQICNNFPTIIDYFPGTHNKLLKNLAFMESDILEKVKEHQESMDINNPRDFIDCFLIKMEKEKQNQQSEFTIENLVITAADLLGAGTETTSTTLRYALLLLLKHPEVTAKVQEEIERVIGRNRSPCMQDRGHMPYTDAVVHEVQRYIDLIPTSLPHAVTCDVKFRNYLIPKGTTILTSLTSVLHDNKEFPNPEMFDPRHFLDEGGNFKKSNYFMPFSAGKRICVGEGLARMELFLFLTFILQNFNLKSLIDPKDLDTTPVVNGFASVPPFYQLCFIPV
T4 sequence (P08684 whole entry): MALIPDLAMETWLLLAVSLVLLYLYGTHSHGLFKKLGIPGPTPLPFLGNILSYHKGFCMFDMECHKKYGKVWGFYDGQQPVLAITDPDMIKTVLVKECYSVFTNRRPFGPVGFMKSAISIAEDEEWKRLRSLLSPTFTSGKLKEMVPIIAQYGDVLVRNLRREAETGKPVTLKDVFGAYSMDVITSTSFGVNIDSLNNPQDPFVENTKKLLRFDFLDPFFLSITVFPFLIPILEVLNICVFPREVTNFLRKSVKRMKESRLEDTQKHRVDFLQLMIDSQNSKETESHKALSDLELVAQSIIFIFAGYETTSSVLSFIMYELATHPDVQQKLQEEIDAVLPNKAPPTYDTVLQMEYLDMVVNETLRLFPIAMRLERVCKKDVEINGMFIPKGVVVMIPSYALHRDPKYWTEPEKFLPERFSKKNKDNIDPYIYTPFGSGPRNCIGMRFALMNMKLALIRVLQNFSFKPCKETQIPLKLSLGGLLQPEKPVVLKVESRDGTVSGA
T3 sequence (P10635 whole entry): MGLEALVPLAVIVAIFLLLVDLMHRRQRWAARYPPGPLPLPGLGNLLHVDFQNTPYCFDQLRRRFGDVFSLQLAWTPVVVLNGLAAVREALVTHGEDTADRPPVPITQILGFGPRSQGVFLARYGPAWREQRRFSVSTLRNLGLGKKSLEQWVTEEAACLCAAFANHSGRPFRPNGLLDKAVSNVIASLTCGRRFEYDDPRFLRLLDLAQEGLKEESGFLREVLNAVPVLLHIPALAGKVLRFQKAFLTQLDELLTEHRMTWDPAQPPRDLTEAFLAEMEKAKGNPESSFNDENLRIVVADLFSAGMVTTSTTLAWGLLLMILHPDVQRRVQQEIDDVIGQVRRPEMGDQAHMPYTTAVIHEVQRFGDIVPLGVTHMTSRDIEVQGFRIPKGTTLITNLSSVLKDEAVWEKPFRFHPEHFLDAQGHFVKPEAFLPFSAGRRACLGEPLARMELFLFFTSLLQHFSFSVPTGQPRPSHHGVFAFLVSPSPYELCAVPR

SMILES	IC50 (CYP2C19) [µM]	IC50 (J774 macrophages; [1]) [µM]	IC50 (CYP2C9) [µM]	IC50 (CYP2D6) [µM]	IC50 (CYP3A4) [µM]	IC50 (J774 macrophages; J774, first column (original replicates, n = 2), footnote (2): 12 point range 10 μM to 0.5 nM, GraphPad Prism) [µM]	IC50 (J774 macrophages; [2]) [µM]
C[C@]1(O)CC[C@H](NS(=O)(=O)c2ccc(-c3ccc(C#N)cc3Cl)cc2)CC1 [HMC-C-09-A, 2′-Chloro-4′-cyano-N-((1r,4r)-4-hydroxy-4-methylcyclohexyl)-[1,1′-biphenyl]-4-sulfonamide]	> 50	0.69	34	> 50	33		
C[C@]1(O)CC[C@@H](NS(=O)(=O)c2ccc(-c3cc(F)c(F)cc3F)cc2)CC1 [HMC-C-10-B, 2′,4′,5′-Trifluoro-N-((1s,4s)-4-hydroxy-4-methylcyclohexyl)-[1,1′-biphenyl]-4-sulfonamide]	8.5	0.54	2.4	> 16	9.2		
C[C@]1(O)CC[C@@H](NS(=O)(=O)c2ccc(-c3ccc(C#N)cc3)c(F)c2)CC1 [HMC-C-07-B, 4′-Cyano-2-fluoro-N-((1s,4s)-4-hydroxy-4-methylcyclohexyl)-[1,1′-biphenyl]-4-sulfonamide]	> 50	0.096	> 50	> 50	> 50	0.09	
C[C@]1(O)CC[C@H](NS(=O)(=O)c2ccc(-c3ccc(Cl)cc3C#N)c(Cl)c2)CC1 [HMC-C-11-A, 2,4′-Dichloro-2′-cyano-N-((1r,4r)-4-hydroxy-4-methylcyclohexyl)-[1,1′-biphenyl]-4-sulfonamide]	5.1	1.46	2.7	9.3	12		
O=S(=O)(N[C@H]1CC[C@H](O)CC1)c1ccc(-c2ccc(F)cc2F)cc1 [ABD599, reference compound]	> 25		9.5	20.7	> 25		0.41
C[C@]1(O)CC[C@H](NS(=O)(=O)c2ccc(-c3ccc(C#N)cc3)c(F)c2)CC1 [HMC-C-07-A, 4′-Cyano-2-fluoro-N-((1r,4r)-4-hydroxy-4-methylcyclohexyl)-[1,1′-biphenyl]-4-sulfonamide]	> 50	1.66	> 50	> 50	> 50		
Cc1cc(S(=O)(=O)N[C@H]2CC[C@H](O)CC2)ccc1-c1ccc(F)cc1F [ABD735, reference compound]	> 25	0.11	25	> 25	> 25		0.07
C[C@]1(O)CC[C@H](NS(=O)(=O)c2ccc(-c3ncc(Cl)cc3C#N)cc2)CC1 [HMC-N-05-A, 4-(5-Chloro-3-cyanopyridin-2-yl)-N-((1r,4r)-4-hydroxy-4-methylcyclohexyl)benzenesulfonamide]	> 50	1.82	27	> 50	> 50		
C[C@]1(O)CC[C@@H](NS(=O)(=O)c2ccc(-c3ccc(F)cc3F)cc2)CC1 [ABD899, reference compound]	7.3	0.21	3.9	45.3	21.6		0.27
C[C@]1(O)CC[C@H](NS(=O)(=O)c2ccc(-c3ccc(Cl)cc3C#N)c(F)c2)CC1 [HMC-C-08-A, 4′-Chloro-2′-cyano-2-fluoro-N-((1r,4r)-4-hydroxy-4-methylcyclohexyl)-[1,1′-biphenyl]-4-sulfonamide]	30	1.25	6.7	19	29		
C[C@]1(O)CC[C@H](NS(=O)(=O)c2ccc(-c3ccc(F)cc3F)cc2)CC1 [ABD900]		2.91					3.64
